Test results as given in patent US4602011A, “Antimicrobial compositions and methods of using same” (Chapman Chemical Company, priority 1982, dated 1986).

Legend:
fungi = experiment: antifungal efficacy of formulated phenolics; details: formulated per invention vs conventional
Text: The antifungal efficacy of these phenolics is improved by formulation in accordance with this invention.

P. aeruginosa = details: reference tests and manufacturer's literature; cited from earlier work
Ceratocystis pilifera = experiment: sugar cane pineapple disease emergence test; format: in vivo; details: 56 days
Experimental: The following composition was prepared and evaluated for control of pineapple disease of sugar cane (Ceratocystis pilifera):
Sugar cane seed was treated with this solution as diluted with a water carrier. Seed also was treated with benomyl, thiophanate methyl, Panoctine (9-aza-1,17-diquanidinoheptadecane triacetate), hot water and cold water. The results are tabulated below:
(2) Prior to planting, the seed was inoculated with the causal disease
organism, Ceratocystis pilifera. Emergence data was collected 56 days

human skin = experiment: skin irritation on human subjects; format: in vivo; details: undiluted on hands
Experimental: These compositions were tested for skin irritation by rubbing 2 ml of each onto the hands of six test subjects. After 60 seconds, Compositions A, B and C were rinsed off the hands with water. […] The results with Compositions D and E were observably different.
The two compositions were tested for skin irritation by placing two drops of one composition on the skin at the inside of one elbow of five test subjects and two drops of the other composition on the same spot on the other elbow of each subject. In all cases, the composition was smeared over about a one-half square inch of skin and the subjects' reactions were noted over a 20-minute test period.
The compositions were tested on three subjects for skin irritation by spreading two drops of each composition over a one square inch area of skin just below one eye of each test subject and the other composition on the same spot beneath the other eye.

[1] = tested on: Aspergillis terreus (ATCC 10609); experiment: minimum fungicidal concentration; format: cell-based; details: ppm of active ingredient; "1" means 1 or fewer
[2] = tested on: Lenzites trabea (ATCC 11539); experiment: minimum fungicidal concentration; format: cell-based; details: ppm of active ingredient; "1" means 1 or fewer
[3] = tested on: Candida albicans (ATCC 10259); experiment: minimum fungicidal concentration; format: cell-based; details: ppm of active ingredient; "1" means 1 or fewer
[4] = tested on: Penicillium brevi compactum (ATCC 16024); details: ppm of active ingredient; "1" means 1 or fewer
[5] = tested on: Trichoderma viride (ATCC 8678); details: ppm of active ingredient; "1" means 1 or fewer
[6] = tested on: rice spot (Helminthosporium orazae and Cerocospora orazae); format: in vivo; details: 33 ppm active; 0 no pathogen control to 10 complete
[7] = tested on: bean mildew (Erysiphe polygoni); experiment: foliar spray on beans; format: in vivo; details: 33 ppm active; 0 no pathogen control to 10 complete
Text: (§1) The composition of Example 23 was screened for fungal pathogen response as a foliar spray on beans and rice. The rating scale is from 0 (no pathogen control) to 10 (complete pathogen control). The concentration of active ingredient (in a water carrier) of all compositions tested is 33 parts per million (ppm). The active ingredient in the composition of Example […] is expressed in terms of Cu-8-Q and the chemical as listed below for four comparative products. The comparative products tested were Karathane (2,4-dimitro-6-(2-octyl phenyl crotonate), Vitavax (5,6-dihydro-2-methyl-1,4-oxathiin-3-carboxanilide), Daconil (tetrachloroisophthalonitrile) and Maneb (manganese ethylenebisdithiocarbamate). The plants and diseases tested were bean mildew (Erysiphe polygoni), bean rust (Uromyces phaseoli typica) and rice spot (Helminthosporium orazae and Cerocospora orazae).
(§2) The rating scale is from 0 (no pathogen control) to 10 (complete pathegon control). The concentration of active ingredient (in a water carrier) of all compositions tested is 33 parts per million (ppm). The active ingredient in the composition of Example 4 is expressed in terms of Cu-8-Q and the chemical as listed below for four comparative products. […]

[8] = tested on: fungal stain and mold growth; experiment: fungal stain and mold growth on dip-treated fresh-cut pine boards; details: 28 days
Experimental: In the examples that follow, the effectiveness of the various formulations was determined by treating freshly cut pine boards by dip immersion for 10 seconds in the formulation to be tested. The boards, along with an untreated control, were placed in a chamber for the period of time indicated and maintained at a temperature of about 80° F. and a humidity of about 70%.
At the end of the test period, the boards were removed from the chamber and rated for effectiveness in terms of percentage of total surface area covered by fungal stain and mold growth. Accordingly, the lower the percentage, the higher the effectiveness of the test formulation. […]
As further evidence of the effectiveness of antimicrobials prepared in accordance with this invention, a number of tests were conducted utilizing DDBSA as the disubstituted aryl compound of this invention as a solution with the below-listed microbicidal agents. […] Fresh-cut green pine test boards were dip-treated and evaluated for stain and mold after 30 days in the aforementioned constant atmosphere test chamber:
These compositions were diluted 1:200 with a water carrier for use, and freshly cut pine boards were dip immersed in the formulation to be tested. […] After the test period, the specimen boards were evaluated in terms of percentage of total surface area covered by fungal stain and mold growth.

rice seedling emergence = format: in vivo
Athlete's Foot = Athlete's Foot treatment; format: in vivo, human; details: one case; Toluaftate 1% twice daily for eight days
Text: The second formulation in the preceding Example was applied once daily by eight test subjects to the skin between the toes for control of "Athlete's Foot". […] Two of the cases had previously resisted control with several over-the-counter brand name antifungals. One of the two, a virulent infection, had reached the bleeding stage from deeply cracked skin and a bacterial infection started, despite twice daily application for eight days of a 1% solution of Toluaftate which has gained broad recognition for effective control of "Athlete's Foot".

[9] = tested on: bean rust (Uromyces phaseoli typica); experiment: foliar spray on beans; format: in vivo; details: 33 ppm active; 0 no pathogen control to 10 complete
Text: as §1, §2

With `Oc1cc(Cl)cc(Cl)c1Cl` [2,3,5-trichlorophenol] as the compound, how does the antifungal efficacy improvement (fungi) read?
The antifungal efficacy improvement was “significantly higher than would be expected”.

With `Oc1ccc(Cl)cc1-c1ccccc1` [4-chloro-2-phenyl phenol] as the compound, how does the phenol coefficient (P. aeruginosa) read?
The phenol coefficient was “less than 10”.

Which “% Emergency, Inoculated” value (Ceratocystis pilifera; 150 ppm active) does the source give for `CCCCNC(=O)n1c(NC(=O)OC)nc2ccccc21` [Benomyl, benomyl] here?
Its value is 50%.

With `CCCCCCCCCCCCc1ccc(S(=O)(=O)O)cc1` [DDBSA, dodecyl benzene sulfonic acid] as the compound, how does the skin sensation (human skin) read?
Its skin sensation is “almost immediate warm and uncomfortable sensation”.

And the “Minimum Fungicidal Concentration” value [1]?
The value was 100 ppm.

And the “Minimum Fungicidal Concentration” value [2]?
Its value is 100 ppm.

What about the “Minimum Fungicidal Concentration” value [3] of the same compound?
The value was 1,000 ppm.

What about the “Minimum Fungicidal Concentration” value [4] of the same compound?
The value was 100 ppm.

What about the “Minimum Fungicidal Concentration” value [5] of the same compound?
Its value is 100 ppm.

For `N#Cc1c(Cl)c(Cl)c(Cl)c(C#N)c1Cl` [Daconil, tetrachloroisophthalonitrile], which “Rice Spot rating” value [6] is on record?
The value was 10.

For `CC=CC(=O)Oc1c(C(C)CCCCCC)cc([N+](=O)[O-])cc1[N+](=O)[O-]` (stereo not drawn) [Karathane, 2,4-dimitro-6-(2-octylphenyl crotonate], which “Bean Mildew rating” value [7] is on record?
Its value is 10.

What does the source list for `OB(O)O` [Orthoboric acid]?
% Stain and Mold ([8]; 0.25% in water): 86%; % Stain and Mold ([8]; 0.50% in water): 62%

Which antifungal efficacy improvement (fungi) does the source give for `Oc1ccccc1-c1ccccc1` [Orthophenyl phenol] here?
Its antifungal efficacy improvement is “significantly higher than would be expected”.

Which “Improvement over Control” value (rice seedling emergence; 4 ounces/cwt, thirteen test plots) does the source give for `CC1=C(C(=O)Nc2ccccc2)SCCO1` [PRODUCT D, 5,6dihydro-2-methyl-1,4-oxathiim-3-carboxanilide] here?
Its value is 12.3%.

And the “Performance Consistency” value (rice seedling emergence; in vivo)?
The value was 71.3.

Which results are given for `N=C(N)NCCCCCCCCNCCCCCCCCNC(=N)N` [Panoctine, 9-aza-1,17-diquanidinoheptadecane triacetate]?
% Emergency, Inoculated (Ceratocystis pilifera; 50 ppm active): 48%; % Emergency, Inoculated (Ceratocystis pilifera; 100 ppm active): 48%; % Emergency, Inoculated (Ceratocystis pilifera; 200 ppm active): 53%

Which results are given for `COC(=O)NC(=S)Nc1ccccc1NC(=S)NC(=O)OC` [Thiophanate methyl, thiophanate methyl]?
% Emergency, Inoculated (Ceratocystis pilifera; 50 ppm active): 55%; % Emergency, Inoculated (Ceratocystis pilifera; 150 ppm active): 51%; % Emergency, Inoculated (Ceratocystis pilifera; 300 ppm active): 49%

With `Cc1cccc(N(C)C(=S)Oc2ccc3ccccc3c2)c1` [Toluaftate] as the compound, how does the “control of resistant Athlete's Foot and bacterial infection” value (Athlete's Foot) read?
Its value is “failed to control”.

For `CC1=C(C(=O)Nc2ccccc2)SCCO1` [Vitavax, 5,6-dihydro-2-methyl-1,4-oxathiin-3-carboxanilide], which “Bean Rust rating” value [9] is on record?
The value was 9.

With `Oc1c(Cl)c(Cl)c(Cl)c(Cl)c1Cl` [pentachlorophenol] as the compound, how does the antifungal efficacy improvement (fungi) read?
The antifungal efficacy improvement was “significantly higher than would be expected”.

Which “Rice Spot rating” value [6] does the source give for “manganese ethylenebisdithiocarbamate [Maneb]” here?
Its value is 8.

With tetrachlorophenol as the compound, how does the antifungal efficacy improvement (fungi) read?
Its antifungal efficacy improvement is “significantly higher than would be expected”.
